From publication PMC8725909, “1,3,4-Oxadiazole-naphthalene hybrids as potential VEGFR-2 inhibitors: design, synthesis, antiproliferative activity, apoptotic effect, and in silico studies” (Journal of Enzyme Inhibition and Medicinal Chemistry, 2021)
Where “and” joins values, the source holds several entries; their conditions need not be identical. Equal entries are not always repeated. Where two headings read alike, the source gives them in different places.

Experiments:
[1] = system: MCF-7 (human breast cancer cell line); experiment: MTT cytotoxicity assay, MCF-7; assay type: cell-based
Description: (§1) MTT assay was used to assess the cytotoxic activities of the synthesised compounds against MCF-7 (human breast cancer cell line) and HepG2 (human hepatocellular carcinoma cell line).
(§2) The MCF-7, HepG2, and THLE-2 cell lines were purchased from the American Type Culture Collection (ATCC, Rockville, MD, USA). MCF-7 and HepG2 cells were grown in a medium that contains Roswell Park Memorial Institute (RPMI) 1640 with L-glutamine, 10% foetal bovine serum (FBS), streptomycin (100 μg/ml) and penicillin (100 U/ml). While THLE-2 cells were cultivated in Bronchial Epithelial Growth Media (BEGM) with 10% FBS, 5 ng/ml EGF, and 70 ng/ml phosphoethanolamine. All cells were maintained in a humidified incubator and 5% (v/v) CO2 atmosphere at 37 °C[60].
(§3) The MCF-7, HepG2, and THLE-2 cells were tested for cytotoxicity using the 3–(4, 5-dimethylthiazol-2-yl)-2,5-diphenyltetrazolium bromide (MTT) assay. The ability of living cells to reduce the yellow product MTT to a blue product, formazan, via a reduction reaction that occurs in the mitochondria is used to assess cell population growth. In this assay, 5000 cells/well were plated in a 96-well plate and allowed to grow for 24 h before being treated with over-mentioned suitable media containing increased concentrations of tested compounds (0, 0.1, 1, 10, 100, and 1000 µM). Each experiment was conducted in triplicate. After removing the media, 100 µL of MTT was added to each well and incubated for 4 h. Following that, 100 µL of dimethyl sulfoxide (DMSO) solution was added to solubilise the resulting formazan product, and absorbance at 570 nm was measured using an ELISA microplate reader (Epoc-2 C micro-plate reader, Bio Tek, VT, USA). The IC50 values [the concentration required to inhibit cell viability by 50%] were calculated.

[2] = system: HepG2 (human hepatocellular carcinoma cell line); experiment: MTT cytotoxicity assay, HepG2; assay type: cell-based
Description: as §1, §2, §3

[3] = system: normal adult liver epithelial cells (THLE-2 cells); experiment: MTT cytotoxicity against normal cells; assay type: cell-based; conditions: Homo sapiens
Description: as §2, §3

[4] = system: VEGFR-2; experiment: VEGFR-2 level in HepG2 cells by ELISA; assay type: cell-based, human; conditions: VEGFR-2 concentration in HepG2 cells after treatment; control 1773 ± 15.01; mean ± SEM of three experiments
Description: In vitro VEGFR-2 concentration was evaluated using Enzyme-Linked Immunosorbent Assay (ELISA) kit (Cat. NO. EK0544) (AVIVA System Biology, USA) according to manufacturer instructions.

[5] = system: HepG2 cells; experiment: Cell cycle analysis by flow cytometry (propidium iodide); assay type: cell-based, human; conditions: HepG2, 8.8 µM, 48 h
Description: As a control, HepG2 cells were not treated with compound 5.
The effect of compound 5 on the cell cycle phases was investigated using propidium iodide staining and flow cytometric analysis according to the cell cycle kit (PN C03551). Briefly, HepG2 cells were allowed to grow in […], then treated with compound 5 for 48 h. After that, the cells were harvested and cell fixation was performed, cells were centrifuged at 2000 rpm for 5 min then, the supernatant was aspirated. The pellet of fixed cells was resuspended in a 0.5 ml cell cycle kit, vortexed, and incubated at 25 °C for 15 min. Finally, DNA was stained with 50 µg/ml propidium iodide for 30 min. Flow cytometric analysis of cell cycle performed on a COULTER® EPICS® XL™ Flow Cytometer (USA)[67–70].

[6] = system: HepG2 cells; experiment: Annexin-V/propidium iodide apoptosis assay; assay type: cell-based, human; conditions: HepG2, 8.8 µM, 48 h, mean ± SEM of three experiments
Description: The apoptosis induced by compound 5 was quantified using an Annexin-V/propidium iodide (PI) staining assay. Compound 5 was applied to HepG2 cells at a concentration of 8.8 µM.
To assess the effect of compound 5 on cell apoptosis, Annexin V–FITC Kit was used according to the kit protocol (PN IM3546), followed by flow cytometric analysis. In brief, HepG2 cells were allowed to grow in […], after that treated for 48 h. then, washed in phosphate-buffered saline and suspended to 5 × 10^5–5 × 10^6 cells/mL in 1X binding buffer. Then we added to 100 µL of the cell suspensions, 5 µL of dissolved PI, and 1 µL of annexin VFITC solution and incubated in the dark for 15 min. Next to that, we added 400 µL of ice-cold 1X binding buffer and mixed gently. Apoptotic cells were determined by flow cytometric analysis on a COULTER® EPICS® XL™ Flow Cytometer (USA)[67]^,[71]^,[72].

[7] = system: caspase-3; experiment: Caspase-3 determination by ELISA; assay type: cell-based, human; conditions: HepG2, 8.8 µM, 24 h
Description: To test the effect of the synthesised compounds on caspase-3 levels, the most promising member 5, at a concentration of 8.8 µM, was applied to the most sensitive cells (HepG2) for 24 h.
The effect of compound 5 on the Caspase-3 level was assessed using an ELISA kit (Catalog # KHO1091) according to manufacturer instructions.

[8] = design: method as in PMID 33707933; conditions: 200 mg once daily, patients with advanced solid tumours; cited from earlier work
[9] = design: method as in PMID 25895472; conditions: cited from earlier work
[10] = MCF7, MTT assay, mean ± SEM of at least three experiments, read-out: IC50 MCF-7
[11] = HepG2, MTT assay, mean ± SEM of at least three experiments, read-out: IC50 HepG2
[12] = THLE-2, normal liver epithelial cells, MTT, mean ± SEM of at least three experiments, read-out: THLE-2 IC50

SMILES	IC50 [1, 10] [µM]	IC50 [2, 11] [µM]	VEGFR-2 (pg/ml) HepG2 [4]	IC50 ([1]; MCF7, read-out: IC50 MCF-7) [µM]	IC50 ([2]; HepG2, read-out: IC50 HepG2) [µM]	also measured
COc1ccc2cc(C(C)c3nnc(SCC(=O)NCc4ccccc4)o3)ccc2c1 (stereo not drawn) [Compound 5, N-Benzyl-2-{[5-(1-(6-methoxynaphthalen-2-yl)ethyl)-1,3,4-oxadiazol-2-yl]thio}acetamide]	9.7 ± 0.75	8.8 ± 0.69	610.4 pg/mL and 610.4 ± 3.46 pg/mL			IC50 [3, 12]: 33.7 ± 1.35 µM; percentage of cells in Pre-G1 phase ([5]; control 1.76%): 34.12%; percentage of cells in S phase ([5]; control 27.59%): 42.05%; percentage of cells in G0/G1 phase ([5]; control 51.31%): 43.91%; Apoptosis (%) ([6]; control 0.51 ± 0.03): 22.86% and 22.86 ± 1.28 %; Necrosis (%) ([6]; control 1.25 ± 0.08): 11.26 ± 0.77 %; increase in the level of caspase-3 compared to control cells [7]: 5.61 fold
COc1ccc2cc(C(C)c3nnc(SCC(=O)Nc4ccccc4C)o3)ccc2c1 (stereo not drawn) [Compound 7, 2-{[5-(1-(6-Methoxynaphthalen-2-yl)ethyl)-1,3,4-oxadiazol-2-yl]thio}-N-(o-tolyl)acetamide]	13.6 ± 1.09	12.5 ± 1.09				
Cc1[nH]c(/C=C2\C(=O)Nc3ccc(F)cc32)c(C)c1C(=O)N[C@H]1CCN(C(=O)N(C)C)C1 [Vorolanib]						safety profile [8]: acceptable safety profile
COc1ccc2cc(C(C)c3nnc(SCC(=O)Nc4ccc([N+](=O)[O-])cc4O)o3)ccc2c1 (stereo not drawn) [Compound 18, N-(2-Hydroxy-4-nitrophenyl)-2-{[5-(1-(6-methoxynaphthalen-2-yl)ethyl)-1,3,4-oxadiazol-2-yl]thio}acetamide]	9.4 ± 0.64	8.7 ± 0.75	1004 pg/mL and 1004 ± 5.49 pg/mL			IC50 [3, 12]: 28.6 ± 2.1 µM
COc1ccc2cc([C@H](C)c3nnc(SCC(=O)Nc4ccccc4[N+](=O)[O-])o3)ccc2c1 [Compound 16, 2-{[5-(1-(6-Methoxynaphthalen-2-yl)ethyl)-1,3,4-oxadiazol-2-yl]thio}-N-(2-nitrophenyl) acetamide]			834.9 pg/mL and 834.9 ± 5.17 pg/mL	9.8 ± 0.8	8.7 ± 0.72	IC50 ([3]; THLE-2, read-out: THLE-2 IC50): 29.7 ± 2.23 µM
COc1ccc2cc(C(C)c3nnc(SCC(=O)Nc4ccc(C)cc4)o3)ccc2c1 (stereo not drawn) [Compound 9, 2-{[5-(1-(6-Methoxynaphthalen-2-yl)ethyl)-1,3,4-oxadiazol-2-yl]thio}-N-(p-tolyl)acetamide]				83.5 ± 7.79	83.7 ± 6.52	
COc1ccc2cc(C(C)c3nnc(SCC(=O)Nc4c(Cl)cccc4Cl)o3)ccc2c1 (stereo not drawn) [Compound 15, N-(2,6-Dichlorophenyl)-2-{[5-(1-(6-methoxynaphthalen-2-yl)ethyl)-1,3,4-oxadiazol-2-yl]thio}acetamide]	9.8 ± 0.46	8.4 ± 0.72	864.5 pg/mL and 864.5 ± 5.92 pg/mL			IC50 [3, 12]: 34.9 ± 1.86 µM
COc1ccc2cc(C(C)c3nnc(SCC(=O)Nc4ccc(Cl)cc4Cl)o3)ccc2c1 (stereo not drawn) [Compound 14, N-(2,4-Dichlorophenyl)-2-{[5-(1-(6-methoxynaphthalen-2-yl)ethyl)-1,3,4-oxadiazol-2-yl]thio}acetamide]				11.2 ± 0.69	10.4 ± 0.81	
COc1cccc(NC(=O)CSc2nnc(C(C)c3ccc4cc(OC)ccc4c3)o2)c1 (stereo not drawn) [Compound 11, 2-{[5-(1-(6-Methoxynaphthalen-2-yl)ethyl)-1,3,4-oxadiazol-2-yl]thio}-N-(3-methoxyphenyl)acetamide]	11.4 ± 0.81	10.7 ± 0.58				
CNC(=O)c1cc(Oc2ccc(NC(=O)Nc3ccc(Cl)c(C(F)(F)F)c3)cc2)ccn1 [Sorafenib, reference compound]	10.8 ± 1.01	10.2 ± 0.97				IC50 [3, 12]: 27.8 ± 1.74 µM
COc1ccc2cc(C(C)c3nnc(SCC(=O)Nc4ccc(Cl)cc4)o3)ccc2c1 (stereo not drawn) [Compound 13, N-(4-Chlorophenyl)-2-{[5-(1-(6-methoxynaphthalen-2-yl)ethyl)-1,3,4-oxadiazol-2-yl]thio}acetamide]				11.4 ± 0.99	10.5 ± 0.93	
COc1ccc2cc(C(C)c3nnc(SCC(=O)Nc4ccccc4)o3)ccc2c1 (stereo not drawn) [Compound 6, 2-{[5-(1-(6-Methoxynaphthalen-2-yl)ethyl)-1,3,4-oxadiazol-2-yl]thio}-N-phenylacetamide]	13.2 ± 1.12	12.3 ± 0.87				
COc1ccc2cc(C(C)c3nnc(SCC(=O)NC4CCCCC4)o3)ccc2c1 (stereo not drawn) [Compound 12, N-Cyclohexyl-2-{[5-(1-(6-methoxynaphthalen-2-yl)ethyl)-1,3,4-oxadiazol-2-yl]thio}acetamide]				25.5 ± 2.02	24.6 ± 2.81	
COc1ccc2cc([C@H](C)c3nnc(SCC(=O)Nc4ccc([N+](=O)[O-])cc4)o3)ccc2c1 [Compound 17, 2-{[5-(1-(6-Methoxynaphthalen-2-yl)ethyl)-1,3,4-oxadiazol-2-yl]thio}-N-(4-nitrophenyl) acetamide]			1067 pg/mL and 1067 ± 4.91 pg/mL	10.4 ± 0.82	9.2 ± 0.76	IC50 ([3]; THLE-2, read-out: THLE-2 IC50): 22.8 ± 1.22 µM
COc1ccc2cc(C(C)c3nnc(SCC(=O)Nc4c(C)cccc4C)o3)ccc2c1 (stereo not drawn) [Compound 10, N-(2,6-Dimethylphenyl)-2-{[5-(1-(6-methoxynaphthalen-2-yl)ethyl)-1,3,4-oxadiazol-2-yl]thio}acetamide]	12.5 ± 0.74	11.8 ± 1.04				
COc1cc2nccc(Oc3ccc(NC(=O)Nc4cc(C)on4)c(Cl)c3)c2cc1OC [Tivozanib]						half-life [9]: 96 h
COc1ccc2cc([C@H](C)c3nnc(SCC(=O)Nc4cccc(C)c4)o3)ccc2c1 [Compound 8, 2-{[5-(1-(6-Methoxynaphthalen-2-yl)ethyl)-1,3,4-oxadiazol-2-yl]thio}-N-(m-tolyl) acetamide]	10.4 ± 0.92	9.5 ± 0.87	583.7 pg/mL and 583.7 ± 1.93 pg/mL			IC50 [3, 12]: 16.7 ± 0.73 µM
